Assay results published in PMC7235792, “Effect of the Most Relevant CYP3A4 and CYP3A5 Polymorphisms on the Pharmacokinetic Parameters of 10 CYP3A Substrates” (Biomedicines, 2020).
Blank lines part the entries; values can stand above or below the molecule they belong to.

Tests used:
[1] = human, in vivo
[2] = CYP3A5 *1/*1 subjects compared to *1/*3 and *3/*3; population PK model; cited from earlier work

AUC in CYP3A5 PM [1]: higher AUC
SMILES: CCOC(=O)C1=C(COCCN)NC(C)=C(C(=O)OC)C1c1ccccc1Cl (centres unmarked) [amlodipine]

SMILES: OCCOCCN1CCN(C2=Nc3ccccc3Sc3ccccc32)CC1 [quetiapine]
increased Cl [2]: 29%

SMILES: Cc1cc2c(s1)Nc1ccccc1N=C2N1CCN(C)CC1 [olanzapine]
association of CYP3A polymorphisms with PK parameters [1]: no significant association

SMILES: O=C1CCc2ccc(OCCCCN3CCN(c4cccc(Cl)c4Cl)CC3)cc2N1 [aripiprazole]
association of CYP3A polymorphisms with PK parameters [1]: no significant association

association of CYP3A polymorphisms with PK parameters [1]: no significant association
SMILES: COC(c1ccccc1)(c1ccccc1)[C@H](Oc1nc(C)cc(C)n1)C(=O)O [ambrisentan]
influence of CYP3A4 or CYP3A5 polymorphisms on elimination [1]: it does not appear that CYP3A4 or CYP3A5 polymorphisms influence its elimination

AUC in CYP3A4 mutated alleles carriers (tendency) [1]: lower AUC
Cl in CYP3A4 mutated alleles carriers (tendency) [1]: higher Cl
SMILES: CC(C)C(=O)Oc1ccc(CO)cc1[C@H](CCN(C(C)C)C(C)C)c1ccccc1 [fesoterodine]
